Experiments:
[1] = test system: 3D ventricular microtissues (hiPSC-ventricular cardiomyocytes with 5% human cardiac fibroblasts); assay: Optical mapping of action potentials of 3D ventricular microtissues under 1 Hz pacing; format: cell-based; settings: for APD30 / APD50 / APD80 / APDTri/APDMxR / Rise Time / APDMxR: mean ± SD
Protocol: (§1) 3D microtissue generation. Sterile 2% (wt/vol) agarose in PBS were pipetted into 35-microwell molds with hemispherical bottoms (FIG. 1C; 3D Petri Dish®, MicroTissues Inc., see MilliporeSigma, St. Louis, Mo., USA). After casted, hydrogels equilibrated in RPMI/B27 media with 1% Pen/Strep overnight in an incubator. Lactate-purified hiPSC-cardiomyocytes were then harvested, singularized, and suspended in RPMI/B27 media with 10% FBS and 1% Pen/Strep, collecting a subset of the cells for flow cytometry analysis of cTnT and MLC2v expression. […] Cells were allowed to settle into the cylindrical recesses for 30 minutes before adding media supplemented with 5 μM ROCK Inhibitor. Culture medium was changed one day post-seeding and replaced every other day. Self-assembling, spheroidal, and scaffold-free 3D microtissues were electrically field stimulated for six-eight days with a 1 Hz, 10.0 V, and 4.0 milliseconds duration bipolar pulse train (C-Pace EP, IonOptix, Westwood, Mass., USA) to precondition the microtissues before optical mapping. […] et al., Proc. Natl. Acad. Sci., U.S.A., 101, 18129-18134 (2004). The 3D microtissues beat synchronously with 1 Hz stimulation within two days, and tissue compaction were observed within three days post-seeding. Optical mapping of cardiac action potential. The inventors transferred hydrogels containing microtissues to a Petri dish on a temperature-controlled chamber (Dual Automatic Temperature Controller TC-344B, Warner Instrument, Hamden, Conn., USA) to maintain ambient temperatures of 35±1° C. throughout imaging. Microtissues were gently perfused in a solution containing (in mM) 140 NaCl, 5.1 KCl, 1 MgCl2, 1 CaCL2, 0.33 NaH2PO4, 5 HEPES, and 7.5 glucose warmed with an inline heater. Microtissues were allowed to equilibrate in the perfusion solution for thirty minutes and subsequently labeled with a voltage-sensitive dye (5 μM di-4-ANEPPS) for five minutes to enable membrane potential (Vm) recordings of action potential. Excess residual dyes were washed out thoroughly before data collection. An active-pixel sensor (CMOS sensor) camera acquired fluorescence images at 1000 frames-per-second, and action potential traces were reconstructed from fluorescence intensity data. Semi-automated analyses of action potential parameters were conducted using an in-house analysis software and included rise time, […] to maximum repolarization rate ([…]), and APD triangulation ([…]). Screening of arrhythmogenic compounds. […] Three molds of microtissues (two atrial cardiomyocytes and one ventricular cardiomyocytes) were used to test the compound 4-aminopyridine under 1 Hz electrical stimulation with a platinum field electrode (Myopacer EP field stimulator, IonOptix, Westwood, Mass., USA). […] At each dose, the microtissues were allowed to respond to the drug for five-ten minutes before action potential recordings were acquired. At least ten seconds of data were acquired per microtissue at each dose. Instead, three molds of atrial microtissues were used to test the compound ivabradine without electrical stimulation to investigate how action potential properties and spontaneous activity were altered in response to the drug.

[2] = test system: 3D atrial microtissues (hiPSC-atrial cardiomyocytes with 5% human cardiac fibroblasts); assay: Optical mapping of action potentials of 3D atrial microtissues under 1 Hz pacing; format: cell-based; settings: for APD30 / APD50 / APD80 / APDMxR / APDTri/APDMxR / Rise Time: mean ± SD
Protocol: as §1

[3] = test system: 3D atrial microtissues (spontaneous activity, If channel); assay: Spontaneous action potential activity of atrial microtissues without electrical stimulation; format: cell-based, human
Protocol: 3D microtissue generation. Sterile 2% (wt/vol) agarose in PBS were pipetted into 35-microwell molds with hemispherical bottoms (FIG. 1C; 3D Petri Dish®, MicroTissues Inc., see MilliporeSigma, St. Louis, Mo., USA). After casted, hydrogels equilibrated in RPMI/B27 media with 1% Pen/Strep overnight in an incubator. Lactate-purified hiPSC-cardiomyocytes were then harvested, singularized, and suspended in RPMI/B27 media with 10% FBS and 1% Pen/Strep, collecting a subset of the cells for flow cytometry analysis of cTnT and MLC2v expression. […] Cells were allowed to settle into the cylindrical recesses for 30 minutes before adding media supplemented with 5 μM ROCK Inhibitor. Culture medium was changed one day post-seeding and replaced every other day. Self-assembling, spheroidal, and scaffold-free 3D microtissues were electrically field stimulated for six-eight days with a 1 Hz, 10.0 V, and 4.0 milliseconds duration bipolar pulse train (C-Pace EP, IonOptix, Westwood, Mass., USA) to precondition the microtissues before optical mapping. […] et al., Proc. Natl. Acad. Sci., U.S.A., 101, 18129-18134 (2004). The 3D microtissues beat synchronously with 1 Hz stimulation within two days, and tissue compaction were observed within three days post-seeding. Optical mapping of cardiac action potential. The inventors transferred hydrogels containing microtissues to a Petri dish on a temperature-controlled chamber (Dual Automatic Temperature Controller TC-344B, Warner Instrument, Hamden, Conn., USA) to maintain ambient temperatures of 35±1° C. throughout imaging. Microtissues were gently perfused in a solution containing (in mM) 140 NaCl, 5.1 KCl, 1 MgCl2, 1 CaCL2, 0.33 NaH2PO4, 5 HEPES, and 7.5 glucose warmed with an inline heater. Microtissues were allowed to equilibrate in the perfusion solution for thirty minutes and subsequently labeled with a voltage-sensitive dye (5 μM di-4-ANEPPS) for five minutes to enable membrane potential (Vm) recordings of action potential. Excess residual dyes were washed out thoroughly before data collection. An active-pixel sensor (CMOS sensor) camera acquired fluorescence images at 1000 frames-per-second, and action potential traces were reconstructed from fluorescence intensity data. Semi-automated analyses of action potential parameters were conducted using an in-house analysis software and included rise time, […] to maximum repolarization rate ([…]), and APD triangulation ([…]). Screening of arrhythmogenic compounds. […] Three molds of microtissues (two atrial cardiomyocytes and one ventricular cardiomyocytes) were used to test the compound 4-aminopyridine under 1 Hz electrical stimulation with a platinum field electrode (Myopacer EP field stimulator, IonOptix, Westwood, Mass., USA). […]

[4] = test system: hiPSC-derived cardiomyocytes (MLC2v); assay: Flow cytometry of MLC2v expression in hiPSC-cardiomyocytes; format: cell-based, human; settings: supplementation at days 3-6 of differentiation; without it 31±0.2, p<0.05; in % (unit assumed)
Protocol: Cardiomyocyte differentiation. The inventors differentiated atrial and ventricular cardiomyocytes ([…] ) from GCaMP6f-expressing human induced pluripotent stem cells (hiPSCs; WTC human iPSCs, Gladstone Institutes, San Francisco, Calif., USA) using small molecule modulations of Wnt signaling, as described previously by Burridge et al., Nature Methods, 11, 855-860 (2014), with slight modifications. hiPSCs were cultured on vitronectin coated plates in Essential 8 Medium (E8 media; Thermo Fisher Scientific, Waltham, Calif., USA). Before starting differentiation, hiPSCs were singularized, seeded onto Matrigel-coated plates in E8 media with 5 μM ROCK Inhibitor (RI; Thermo Fisher Scientific, Waltham, Calif., USA) and cultured to 80% confluency, at which point the cells were treated with 4.5 μM CHIR 99021 (Tocris Bioscience, Minneapolis, Minn., USA), a glycogen synthase kinase 3 (GSK3) inhibitor, for 24±1 hours in chemically defined medium CDM3 basal medium (RPMI 1640 Thermo Fisher Scientific, Waltham, Mass., USA) supplemented with L-ascorbic acid and human serum albumin). […] Samples were run on a BD FACSAriaTM Illu Flow Cytometer (BD Biosciences, San Jose, Calif.), and data were analyzed with FlowJo (BD Biosciences, San Jose, Calif.).

**Q.** Which APD30 ([1]; 1 μM) does the source give for `Nc1ccncc1` [4-Aminopyridine] here?
**A.** Its APD30 is 244.6 ± 38.4 ms.

**Q.** And the APD50 ([1]; 1 μM)?
**A.** Its APD50 is 287.8 ± 49.9 ms.

**Q.** What about the APD80 ([1]; 1 μM) of the same compound?
**A.** The APD80 was 329.6 ± 50.6 ms.

**Q.** And the APDTri/APDMxR ([1]; 1 μM)?
**A.** Its APDTri/APDMxR is 0.09 ± 0.01′.

**Q.** And the “Rise Time” value ([1]; 1 μM)?
**A.** Its value is 6.9 ± 1.9 ms.

**Q.** What about the APD30 ([1]; 3 μM) of the same compound?
**A.** The APD30 was 233.3 ± 35.8 ms.

**Q.** And the APD50 ([1]; 3 μM)?
**A.** Its APD50 is 275.7 ± 47.7 ms.

**Q.** What about the APD80 ([1]; 3 μM) of the same compound?
**A.** Its APD80 is 321.6 ± 54.1 ms.

**Q.** What about the APDMxR ([1]; 3 μM) of the same compound?
**A.** The APDMxR was 307.5 ± 55.2 ms.

**Q.** And the APDTri/APDMxR ([1]; 3 μM)?
**A.** Its APDTri/APDMxR is 0.10 ± 0.02.

**Q.** And the “Rise Time” value ([1]; 3 μM)?
**A.** The value was 7.1 ± 2.4 ms.

**Q.** What about the APD30 ([1]; 100 μM) of the same compound?
**A.** The APD30 was 236.7 ± 32.5 ms.

**Q.** What about the APD50 ([1]; 100 μM) of the same compound?
**A.** Its APD50 is 280.0 ± 44.0 ms.

**Q.** What about the APD80 ([1]; 100 μM) of the same compound?
**A.** Its APD80 is 325.6 ± 48.5 ms.

**Q.** What about the APDMxR ([1]; 100 μM) of the same compound?
**A.** Its APDMxR is 312.5 ± 51.7 ms.

**Q.** What about the APDTri/APDMxR ([1]; 100 μM) of the same compound?
**A.** The APDTri/APDMxR was 0.10 ± 0.02.

**Q.** And the “Rise Time” value ([1]; 100 μM)?
**A.** Its value is 7.5 ± 2.6 ms.

**Q.** What about the “Change of APD30, APD50, APD80 and APDMxR (in words)” value ([1]; all dosages) of the same compound?
**A.** Its value is “No significant changes”.

**Q.** What about the APD30 ([2]; 1 μM) of the same compound?
**A.** Its APD30 is 75.2 ± 11.4 ms.

**Q.** What about the APD50 ([2]; 1 μM) of the same compound?
**A.** The APD50 was 95.7 ± 12.9 ms.

**Q.** And the APD80 ([2]; 1 μM)?
**A.** Its APD80 is 121.4 ± 16.2 ms.

**Q.** And the APDMxR ([2]; 1 μM)?
**A.** Its APDMxR is 126.6 ± 15.8 ms.

**Q.** And the APDTri/APDMxR ([2]; 1 μM)?
**A.** The APDTri/APDMxR was 0.24 ± 0.03.

**Q.** What about the “Rise Time” value ([2]; 1 μM, n=3 batches) of the same compound?
**A.** Its value is 11.9 ± 2.6 ms.

**Q.** And the APD30 ([2]; 3 μM)?
**A.** The APD30 was 75.2 ± 11.4 ms.

**Q.** And the APD50 ([2]; 3 μM)?
**A.** Its APD50 is 97.5 ± 11.4 ms.

**Q.** And the APD80 ([2]; 3 μM)?
**A.** The APD80 was 123.5 ± 14.7 ms.

**Q.** And the APDMxR ([2]; 3 μM)?
**A.** The APDMxR was 128.3 ± 12.9 ms.

**Q.** And the APDTri/APDMxR ([2]; 3 μM)?
**A.** Its APDTri/APDMxR is 0.24 ± 0.03.

**Q.** And the “Rise Time” value ([2]; 3 μM)?
**A.** Its value is 11.8 ± 2.2 ms.

**Q.** And the “Change of rise time and APDTri (in words)” value ([2]; 100 μM)?
**A.** The value was “significant increase”.

**Q.** And the APD30 ([2]; 100 μM)?
**A.** Its APD30 is 84.0 ± 10.6 ms.

**Q.** And the APD50 ([2]; 100 μM)?
**A.** Its APD50 is 104.8 ± 12.0 ms.

**Q.** And the APD80 ([2]; 100 μM)?
**A.** Its APD80 is 129.9 ± 15.9 ms.

**Q.** And the APDMxR ([2]; 100 μM)?
**A.** Its APDMxR is 136.6 ± 14.6 ms.

**Q.** What about the APDTri/APDMxR ([2]; 100 μM) of the same compound?
**A.** The APDTri/APDMxR was 0.23 ± 0.03.

**Q.** And the “Rise Time” value ([2]; 100 μM)?
**A.** The value was 14.0 ± 3.7 ms.

**Q.** And the “Change of APD30, APD50, APD80 and APDMxR (in words)” value ([2]; increasing doses (1, 3, 100 μM))?
**A.** Its value is “significantly prolonged”.

**Q.** How did the “Effect on spontaneous activity (share of microtissues, in words)” value ([3]; atrial microtissues, 1 μM, no electrical stimulation) turn out when `COc1cc2c(cc1OC)CC(=O)N(CCCN(C)C[C@H]1Cc3cc(OC)c(OC)cc31)CC2` [Ivabradine] was run?
**A.** Its value is “eliminate spontaneous activity in more than half of the atrial microtissues”.

**Q.** What about the “Effect on spontaneous action potential events (in words)” value ([3]; atrial microtissues, all tested dosages) of the same compound?
**A.** Its value is “significantly reduced spontaneous action potential events”.

**Q.** And the “Effect on spontaneous activity (in words)” value ([3]; atrial microtissues, higher dosages)?
**A.** The value was “loss of spontaneous activity”.

**Q.** And the “Voltage trace events (in words)” value ([3]; small subset of spontaneous atrial microtissues, 5 μM, recovered with 1 Hz pacing)?
**A.** Its value is “events resembling failed depolarization”.

**Q.** How did the “MLC2v+ expression of cardiomyocytes” value [4] turn out when `CC1=C(/C=C/C(C)=C/C=C/C(C)=C/C(=O)O)C(C)(C)CCC1` [Retinoic acid] was run?
**A.** Its value is 18±5.
